Among the data in ChEMBL document CHEMBL1124634, “Synthesis and antirhinovirus activity of 6-(dimethylamino)-2-(trifluoromethyl)-9-(substituted benzyl)-9H-purines” (J Med Chem, 1989) are IC50 and Inhibition values, retold here.

The subject of assay [1] is Human rhinovirus sp. Briefly: Antiviral activity against rhinoviral 29 serotype in a plaque inhibition assay using monolayers of M-HeLa cells. It counts as functional, organism-based.
The test system of assay [2] is Human rhinovirus sp. The experiment in a line: Antiviral activity against rhinoviral 30 serotype in a plaque inhibition assay using monolayers of M-HeLa cells. It is filed as functional, organism-based.
For assay [3], the system named is Human rhinovirus sp. The experiment in a line: Antiviral activity against rhinoviral 8 serotype in a plaque inhibition assay using monolayers of M-HeLa cells. It counts as functional, organism-based.
The subject of assay [4] is Human rhinovirus sp. Briefly: Antiviral activity against rhinoviral 14 serotype in a plaque inhibition assay using monolayers of M-HeLa cells. It counts as functional, organism-based.
Assay [5] concerns Human rhinovirus sp. Briefly: Antiviral activity against rhinoviral 16 serotype in a plaque inhibition assay using monolayers of M-HeLa cells. It is filed as functional, organism-based.
In assay [6] the test system is Human rhinovirus sp. Briefly: Antiviral activity against rhinoviral 12 serotype in a plaque inhibition assay using monolayers of M-HeLa cells. It is filed as functional, organism-based.
Assay [7] has as its system Human rhinovirus sp. The experiment in a line: Antiviral activity against rhinoviral-18 serotype in a plaque inhibition assay using monolayers of M-HeLa cells. It counts as functional, organism-based.
In assay [8] the test system is Human rhinovirus sp. Briefly: Antiviral activity against rhinoviral-1A serotype in a plaque inhibition assay using monolayers of M-HeLa cells. It is filed as functional, organism-based.
Assay [9] relates to Human rhinovirus sp. Briefly: Antiviral activity against rhinoviral-1B serotype in a plaque inhibition assay using monolayers of M-HeLa cells. It counts as functional, organism-based.
Assay [10] deals with Human rhinovirus sp. The experiment in a line: Percent inhibitory activity at 8 uM against rhinoviral 13 serotype in a plaque inhibition assay using monolayers of M-HeLa cells. It is filed as functional.
In assay [11] the test system is Human rhinovirus sp. Briefly: Percent inhibitory activity at 8 uM against rhinoviral 15 serotype in a plaque inhibition assay using monolayers of M-HeLa cells. It is filed as functional.
The subject of assay [12] is Human rhinovirus sp. The experiment in a line: Percent inhibitory activity at 8 uM against rhinoviral 21 serotype in a plaque inhibition assay using monolayers of M-HeLa cells. It is filed as functional.
In assay [13] the test system is Human rhinovirus sp. Briefly: Percent inhibitory activity at 8 uM against rhinoviral 3 serotype in a plaque inhibition assay using monolayers of M-HeLa cells. It is filed as functional.
The test system of assay [14] is Human rhinovirus sp. The experiment in a line: Percent inhibitory activity at 8 uM against rhinoviral 4 serotype in a plaque inhibition assay using monolayers of M-HeLa cells. It counts as functional.
Assay [15] relates to Human rhinovirus sp. Briefly: Percent inhibitory activity at 8 uM against rhinoviral 5 serotype in a plaque inhibition assay using monolayers of M-HeLa cells. It is filed as functional.
A short description of assay [16]: Percent inhibitory activity at 8 uM against rhinoviral-19 serotype in a plaque inhibition assay using monolayers of M-HeLa cells. It counts as functional, Homo sapiens.
Assay [17] in a line: Percent inhibitory activity at 8 uM against rhinoviral 2 serotype in a plaque inhibition assay using monolayers of M-HeLa cells. It is filed as functional, Homo sapiens.
Assay [18] has as its system Human rhinovirus sp. The experiment in a line: Antiviral activity against rhinoviral 9 serotype in a plaque inhibition assay using monolayers of M-HeLa cells. It counts as functional, organism-based.
In assay [19] the test system is Human rhinovirus sp. The experiment in a line: Antiviral activity against rhinoviral 31 serotype in a plaque inhibition assay using monolayers of M-HeLa cells. It is filed as functional, organism-based.

Molecules are shown by their SMILES.

One may read the IC50 as the midpoint of a concentration-inhibition curve. Lower therefore signals inhibition by little substance. As a reminder, the Inhibition is the change of the read-out against control, counted positive when it falls. For `CN(C)c1nc(C(F)(F)F)nc2c1ncn2Cc1ccc(Cl)c(NC=O)c1`, the IC50 in assay [1] stood at 6.3 µM; in assay [2], 6.5 µM; in assay [3], 6.7 µM; in assay [4], 9.6 µM; in assay [5], 1.9 µM; in assay [6], 5 µM. Besides, the 50% inhibitory concentration (IC50) in [7] amounted to 8.7 µM; in [8], 8 µM; in assay [9] it was 0.56 µM; in assay [18], 1.8 µM; in assay [19], 8 µM. Further, the Inhibition in assay [10] was 43%; in assay [11], 29%; in assay [12], 20%; in [13], 40%; in [14] it was 34%; in [15] it was 36%. Further, the Inhibition in assay [16] came out at 18%; in assay [17] it was 35%.
